Converted amounts (≈) assume the structure as drawn. Like-named read-outs stand apart in the source and are kept apart here.
Assays:
NHEK = experiment: Inhibition of cell growth by incorporation of [3H]-thymidine, NHEK; assay type: cell-based, human; settings: Homo sapiens, read-out: IC50 NHEK
A431 [1] = experiment: Inhibition of cell growth by incorporation of [3H]-thymidine, A431; assay type: cell-based, human; settings: Homo sapiens
[2] = molecular target: recombinant human MEK 1 (MAPKK) and recombinant human ERK2 (MAPK); experiment: Mitogen Activated Protein Kinase (MAPK) assay, two component coupled MEK 1 / ERK2; assay type: biochemical; settings: separate entries for the same compound = evaluated more than one time;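 note: MEK 1-activated ERK2 phosphorylates MBP or Myc peptide with 33P-ATP, filter capture and scintillation counting, inhibitor preincubated with ERK2 30 min at 0 °C, inhibition relative to uninhibited control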
LNCAP = experiment: Inhibition of cancer cell growth as measured by cell number, LNCAP; assay type: cell-based; settings: Homo sapiens, 48 h, read-out: IC50 LNCAP
CX1 = experiment: Inhibition of cancer cell growth as measured by cell number, CX1; assay type: cell-based; settings: Homo sapiens, CX-1, 48 h, read-out: IC50 CX1
SKBR3 = experiment: Inhibition of cancer cell growth as measured by cell number, SKBR3; assay type: cell-based, human; settings: Homo sapiens, SK-BR-3, 48 h, read-out: IC50 SKBR3, cell number, Sulforhodamine B, 48 hours exposure; Table 7;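 note: SK-BR-3 cells were selected as a line overexpressing HER2/neu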
Description: (§1) The cell lines were chosen since they overexpressed epidermal growth factor receptor (EGFR) (i.e. A431) or HER2/neu (SKBR3), or had little to no expression of the these receptors (SW620, LOX, MCF7).

HTB161 = experiment: Inhibition of cancer cell growth as measured by cell number, HTB161; assay type: cell-based; settings: Homo sapiens, 48 h, read-out: IC50 HTB161
A27805 = experiment: Inhibition of cancer cell growth as measured by cell number, A27805; assay type: cell-based; settings: Homo sapiens, 48 h, read-out: IC50 A27805
LS174T = experiment: Inhibition of cancer cell growth as measured by cell number, LS174T; assay type: cell-based; settings: Homo sapiens, 48 h, read-out: IC50 LS174T
LOX = experiment: Inhibition of cancer cell growth as measured by cell number, LOX; assay type: cell-based, human; settings: Homo sapiens, LOX, 48 h, read-out: IC50 LOX, cell number, Sulforhodamine B, 48 hours exposure; Table 6;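 note: LOX cells served as a line with low or absent EGFR and HER2/neu expression, in contrast to receptor-overexpressing lines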
Description: as §1

[3] = molecular target: epidermal growth factor receptor kinase (Homo sapiens, UniProt P00533); experiment: biochemical
CCRF-CFM = experiment: Inhibition of cancer cell growth as measured by cell number, CCRF-CFM; assay type: cell-based; settings: Homo sapiens, 48 h, read-out: IC50 CCRF-CFM
DU145 = experiment: Inhibition of cancer cell growth as measured by cell number, DU145; assay type: cell-based; settings: Homo sapiens, DU-145, 48 h, read-out: IC50 DU145
CACO2 = experiment: Inhibition of cancer cell growth as measured by cell number, CACO2; assay type: cell-based; settings: Homo sapiens, Caco-2, 48 h, read-out: IC50 CACO2
CCL228 = experiment: Inhibition of cancer cell growth as measured by cell number, CCL228; assay type: cell-based; settings: Homo sapiens, 48 h, read-out: IC50 CCL228
A2780DDP = experiment: Inhibition of cancer cell growth as measured by cell number, A2780DDP; assay type: cell-based; settings: Homo sapiens, 48 h, read-out: IC50 A2780DDP
MCF7 = experiment: Inhibition of cancer cell growth as measured by cell number, MCF7; assay type: cell-based, human; settings: Homo sapiens, MCF7, 48 h, read-out: IC50 MCF7, cell number, Sulforhodamine B, 48 hours exposure; Table 5;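 note: MCF7 was included as a line with little or no EGFR or HER2/neu expression, in contrast to the receptor-overexpressing lines of the panel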
Description: as §1

PC3 = experiment: Inhibition of cancer cell growth as measured by cell number, PC3; assay type: cell-based; settings: Homo sapiens, PC-3, 48 h, read-out: IC50 PC3
COLO205 = experiment: Inhibition of cancer cell growth as measured by cell number, COLO205; assay type: cell-based; settings: Homo sapiens, COLO 205, 48 h, read-out: IC50 COLO205
A431 [4] = experiment: Inhibition of cancer cell growth as measured by cell number, A431; assay type: cell-based, human; settings: Homo sapiens, A-431, 48 h, read-out: IC50 A431, cell number, Sulforhodamine B, 48 hours exposure; Table 6;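 note: human A431 line, picked because it overexpresses epidermal growth factor receptor (EGFR)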
Description: as §1

LX1 = experiment: Inhibition of cancer cell growth as measured by cell number, LX1; assay type: cell-based; settings: Homo sapiens, LX-1, 48 h, read-out: IC50 LX1
A549 = experiment: Inhibition of cancer cell growth as measured by cell number, A549; assay type: cell-based; settings: Homo sapiens, A549, 48 h, read-out: IC50 A549
T47D = experiment: Inhibition of cancer cell growth as measured by cell number, T47D; assay type: cell-based; settings: Homo sapiens, 48 h, read-out: IC50 T47D
HL60 = experiment: Inhibition of cancer cell growth as measured by cell number, HL60; assay type: cell-based; settings: Homo sapiens, HL-60, 48 h, read-out: IC50 HL60
NEC = experiment: Inhibition of cancer cell growth as measured by cell number, NEC; assay type: cell-based; settings: Homo sapiens, 48 h, read-out: IC50 NEC
SW620 = experiment: Inhibition of cancer cell growth as measured by cell number, SW620; assay type: cell-based, human; settings: Homo sapiens, SW-620, 48 h, read-out: IC50 SW620, cell number, Sulforhodamine B, 48 hours exposure; Table 4;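 note: SW620 was included as a cell line with little or no EGFR or HER2/neu expression, in contrast to receptor-overexpressing lines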
Description: as §1

HCT15 = experiment: Inhibition of cancer cell growth as measured by cell number, HCT15; assay type: cell-based; settings: Homo sapiens, HCT-15, 48 h, read-out: IC50 HCT15
MIP = experiment: Inhibition of cancer cell growth as measured by cell number, MIP; assay type: cell-based; settings: Homo sapiens, read-out: IC50 MIP
SW948 = experiment: Inhibition of cancer cell growth as measured by cell number, SW948; assay type: cell-based; settings: Homo sapiens, SW948, 48 h, read-out: IC50 SW948
B7474 = experiment: Inhibition of cancer cell growth as measured by cell number, B7474; assay type: cell-based; settings: Homo sapiens, 48 h, read-out: IC50 B7474

epidermal growth factor receptor kinase, sequence (P00533 25-1210): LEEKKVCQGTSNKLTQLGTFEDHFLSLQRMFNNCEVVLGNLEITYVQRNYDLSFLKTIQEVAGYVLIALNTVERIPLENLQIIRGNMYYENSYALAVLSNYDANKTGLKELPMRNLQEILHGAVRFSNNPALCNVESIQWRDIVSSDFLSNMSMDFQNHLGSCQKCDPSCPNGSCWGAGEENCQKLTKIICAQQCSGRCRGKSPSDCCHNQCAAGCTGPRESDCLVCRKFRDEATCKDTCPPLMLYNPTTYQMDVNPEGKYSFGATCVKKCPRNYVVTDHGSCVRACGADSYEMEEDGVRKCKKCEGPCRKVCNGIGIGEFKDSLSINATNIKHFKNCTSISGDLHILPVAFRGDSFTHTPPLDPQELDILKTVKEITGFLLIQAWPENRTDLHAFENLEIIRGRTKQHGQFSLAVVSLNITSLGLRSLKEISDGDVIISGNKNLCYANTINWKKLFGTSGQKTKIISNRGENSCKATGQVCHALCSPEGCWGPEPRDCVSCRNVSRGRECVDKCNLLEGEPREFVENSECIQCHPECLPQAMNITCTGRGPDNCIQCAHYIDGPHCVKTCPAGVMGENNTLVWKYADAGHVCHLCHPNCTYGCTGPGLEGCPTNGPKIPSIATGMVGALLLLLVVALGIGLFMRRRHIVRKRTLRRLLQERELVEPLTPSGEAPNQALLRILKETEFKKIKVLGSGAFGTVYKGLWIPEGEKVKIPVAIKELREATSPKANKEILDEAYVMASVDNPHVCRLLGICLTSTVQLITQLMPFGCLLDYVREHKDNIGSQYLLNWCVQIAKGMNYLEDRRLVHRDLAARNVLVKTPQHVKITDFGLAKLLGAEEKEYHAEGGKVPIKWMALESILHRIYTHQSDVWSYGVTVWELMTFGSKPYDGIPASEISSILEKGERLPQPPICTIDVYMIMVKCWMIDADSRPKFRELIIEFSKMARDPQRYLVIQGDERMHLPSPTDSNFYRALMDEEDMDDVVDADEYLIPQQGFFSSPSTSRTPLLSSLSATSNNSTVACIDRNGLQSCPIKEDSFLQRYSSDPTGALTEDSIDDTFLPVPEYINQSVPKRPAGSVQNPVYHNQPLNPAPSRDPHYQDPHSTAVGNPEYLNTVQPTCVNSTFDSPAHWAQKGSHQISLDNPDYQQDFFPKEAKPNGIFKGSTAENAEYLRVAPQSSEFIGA

SMILES | IC50 [2] [µM] | IC50 (LNCAP) [µg/mL] | IC50 (CX1) [µg/mL] | IC50 (SKBR3) [µg/mL] | IC50 (HTB161) [µg/mL] | IC50 (A27805) [µg/mL] | IC50 (NHEK) [µM] | IC50 (LS174T) [µg/mL] | IC50 (LOX) [µg/mL] | IC50 (CCRF-CFM) [µg/mL] | IC50 (DU145) [µg/mL] | IC50 (CACO2) [µg/mL] | IC50 (CCL228) [µg/mL] | IC50 (A2780DDP) [µg/mL] | IC50 (MCF7) [µg/mL] | IC50 (PC3) [µg/mL] | IC50 (COLO205) [µg/mL] | IC50 (A431 [4]) [µg/mL] | IC50 (LX1) [µg/mL] | IC50 (A549) [µg/mL] | further results
N#Cc1cnc2ccc([N+](=O)[O-])cc2c1Nc1ccc(Br)c(Br)c1 [Example 20, 4-[(3,4-Dibromophenyl)amino]-6-nitro-3-quinolinecarbonitrile] |  |  |  |  |  |  |  |  |  |  |  |  |  |  |  |  |  |  |  |  | IC50 (NHEK; [3H]-thymidine incorporation): 0.65 µM; IC50 (A431 [1]; A-431, [3H]-thymidine incorporation, A431, read-out: IC50 A431): 35 µM
CC#CC(=O)Nc1ccc2ncc(C#N)c(Nc3cccc(Br)c3)c2c1 [Example 15, N-[4-[(3-Bromophenyl)amino]-3-cyano-6-quinolinyl]-2-butynamide] | > 100 | > 33 | 33 (≈ 81.4 µM) | > 33 | 33 (≈ 81.4 µM) | 33 (≈ 81.4 µM) | 4 | > 33 | > 33 | > 33 | 18 (≈ 44.4 µM) | 2.41 (≈ 5.94 µM) | > 33 | 33 (≈ 81.4 µM) | > 33 | > 33 | 33 (≈ 81.4 µM) | 22 (≈ 54.3 µM) | > 33 | > 33 | IC50 [3]: 0.0006 µM; IC50 (T47D): > 33 µg/mL; IC50 (HL60): > 33 µg/mL; IC50 (NEC): > 33 µg/mL; IC50 (SW620): 33 µg/mL (≈ 81.4 µM); IC50 (HCT15): > 33 µg/mL; IC50 (MIP; 48 h): 33 µg/mL (≈ 81.4 µM); IC50 (SW948): > 33 µg/mL; IC50 (B7474): > 33 µg/mL
COc1cc2ncc(C#N)c(Nc3cccc(Br)c3)c2cc1N [Example 7, 6-Amino-4-[(3-bromophenyl)amino] -7-methoxy-3-quinolinecarbonitrile] | 25 | 2.19 (≈ 5.92 µM) | 4.88 (≈ 13.2 µM) | 5.6 (≈ 15.2 µM) | 2.12 (≈ 5.75 µM) | 4.66 (≈ 12.6 µM) | 4.5 | 3.23 (≈ 8.75 µM) | 1.45 (≈ 3.92 µM) | 3.44 (≈ 9.3 µM) | 1.09 (≈ 2.95 µM) | 2.3 (≈ 6.22 µM) | 6.25 (≈ 16.9 µM) | 4.91 (≈ 13.3 µM) | 5.67 (≈ 15.4 µM) | 7.22 (≈ 19.6 µM) | 4.83 (≈ 13.1 µM) | 1.06 (≈ 2.86 µM) | 6.3 (≈ 17.1 µM) | 5.93 (≈ 16.1 µM) | IC50 (A431 [1]; A-431, read-out: IC50 A431): > 50 µM; IC50 (T47D): 5.17 µg/mL (≈ 14 µM); IC50 (HL60): 2.63 µg/mL (≈ 7.13 µM); IC50 (NEC): 5.18 µg/mL (≈ 14 µM); IC50 (SW620): 5.84 µg/mL (≈ 15.8 µM); IC50 (HCT15): 3.98 µg/mL (≈ 10.8 µM); IC50 (MIP; cell number, Sulforhodamine B, 48 hours exposure, Table 4): 2.39 µg/mL (≈ 6.48 µM); IC50 (SW948): 5.85 µg/mL (≈ 15.9 µM); IC50 (B7474): 3.88 µg/mL (≈ 10.5 µM)

Source: patent publication EP0973746B1, “SUBSTITUTED 3-CYANO QUINOLINES” (Wyeth Holdings Corporation, priority 1997, dated 1998)
